Assay results taken from patent publication US6319951A, “Use of 3-amino-4-hydroxybenzoic acid for the treatment of retroviral infections” (priority 1996, dated 2001).
Converted amounts (≈) assume the structure as drawn. “Also recorded” adds a separate entry of the source. Like-named read-outs stand apart in the source and are kept apart here.

Legend:
[1] = safety study on human volunteers; assay type: in vivo; settings: 7 volunteers, oral; person 1: 200 mg stat and 200 mg tds x 2/52; person 3: 800 mg stat
Excerpt: Safety Study on Human Volunteers
Dose & Frequency of 3- Total 3-amino-4-
amino-4-hydroxybenzoic hydroxybenzoic acid
Person acid Intake mg/kg
Each person took 3-amino-4-hydroxybenzoic acid orally.

gonorrhoeae = assay: patient with gonorrhoea treated orally; assay type: in vivo, human; settings: 1.6 g orally
Method: (§1) When a patient, with a frankly discharging gonorrhoeae was given 1.6 g of 3-amino-4-hydroxybenzoic acid orally, the discharge ceased in 12 hours but recurred in the 24th hour after treatment.

[2] = Therapeutic Index determination
Excerpt: The Therapeutic Index of 3-amino-4-hydroxybenzoic acid has been determined. International pharmacological principles demand that for human safety the Therapeutic Index of any drug to be used for human treatment should be greater than a unit, i.e. 1. If the Index is greater than 1, patients can take the drug without medical supervision and without experiencing adverse effects. There are, however, cases where therapeutic indices are less than 1 where the benefits outweigh the risks. This holds in the administration of anti-cancer drugs which mandate the availability of competent medical supervision. The reason behind this is that the drugs are supposed to destroy cancerous human cells. The difference between normal human cells and cancerous human cells is, as expected, minimal. It is expected that the difference between HIV and normal human cells would be colossal.
Therapeutic Index for 3-amino-4-hydroxybenzoic acid is: [formula]
The index for 3-amino-4-hydroxybenzoic acid is 40,000 which is good mathematical proof to back the safety of 3-amino-4-hydroxybenzoic acid as a drug to treat HIV.

[3] = adverse effects in HIV/AIDS patients; assay type: in vivo, human
Excerpt: Our experience in using 3-amino-4-hydroxybenzoic acid to treat HIV/AIDS has shown only one non-uniform adverse effect. […] In the case of 3-amino-4-hydroxybenzoic acid, this occasional side effect can be averted by feeding before administration, giving a flavouring agent before administration or preparing the medicament in capsule form. The nausea is temporary. The medicament is preferably taken for approximately 28 days.

HIV [4] = assay: trial based on clinical and haematological findings (Example 5); assay type: in vivo
Excerpt: In addition, trial based on clinical and haematological findings have shown the following observations.

Herpes simplex = assay: antimicrobial activity, Herpes simplex
HIV [5] = assay: dipping HIV into aqueous 3-amino-4-hydroxybenzoic acid; settings: aqueous solution, 30 seconds
Excerpt: This duration is too short to be an inhibition of protein synthesis. It could only be an irreversible binding of the viral coat at gp120, gp160 or gp41 thereby making the virus fail to attach itself to the CD4 surface markers of target cells. […] It may also inactivate the lytic enzyme essential for HIV entry into the host cell as it does for hyaluronidase.

Trichomona vapinalis = assay: antimicrobial activity, protozoan Trichomonas
water solubility = assay type: physicochemical
HIV [6] = assay type: in vivo
Method: Clinical observations on HIV/AIDS Patients Treated with 3-amino-4-hydroxybenzoic acid
Treatment was administered orally to each patient taking 200 mg of 3-amino-4-hydroxybenzoic acid tds for 14 days.

[7] = absorption and excretion inferred from oral treatment of gonorrhoea patient; assay type: in vivo, human; settings: 1.6 g
Method: as §1

safety study on rabbit = assay type: in vivo; settings: intraperitoneal, 9 days, up to 133.3 mg/kg
safety study on chicken = assay type: in vivo; settings: oral, 9 days, up to 400.6 mg/kg
Excerpt: A chicken of 500 g was used and 3-amino-4-hydroxybenzoic acid in water was forced down the esophagus using a plastic syringe over 9 days.

HIV [8] = assay: HIV culture from patient blood (Example 6); assay type: in vivo
Excerpt: Blood samples were taken for electron microscopy and HIV culture before and after treatment of two patients.

HIV [9] = assay: inactivation of HIV cultivated in human lymphocytes (minimum inhibitory concentration); assay type: cell-based
Neisseria gonorrhoeae = assay: antimicrobial activity, Neisseria gonorrhoeae
Escherchia coli = assay: antimicrobial activity, Escherichia coli
Treponema pallidum = assay: antimicrobial activity, Treponema pallidum
[10] = 200 mg tds oral, 14 days, patient three (1)

Nc1cc(C(=O)O)ccc1O [3-amino-4-hydroxybenzoic acid]
persons experiencing nausea [1]: Only persons 1 and 3 experienced nausea without vomiting | bacteriostatic effect (gonorrhoeae): bacteriostatic | time to cessation of gonorrhoeal discharge (gonorrhoeae): 12 h | Therapeutic Index [2]: 40,000 | selectivity ratio [2]: 40000 | adverse effect ([3]; HIV/AIDS patients): nausea and vomiting in the very weak | side effects noted ([3]; chicken, rabbit, sheep and human volunteers): Only tolerable nausea and occasional vomiting | time until anorexia subsides (HIV [4]; human, in vivo): ≤ 5 days | time until bed ridden patients can stand and do light work (HIV [4]; human, in vivo): ≤ 2 weeks | time until diarrhoea stops (HIV [4]; human, in vivo): 1-3 | time until fever and weakness subside (HIV [4]; human, in vivo): ≤ 1 week | time until haemoglobin normalizes (HIV [4]; human, in vivo): ≤ 1 month | time until poor vision normalizes (HIV [4]; human, in vivo): ≤ 1 week | time until rashes and hyper pigmentation of scars subside (HIV [4]; human, in vivo): ≤ 5 days | time until sleep normalizes in intensity and rhythm (HIV [4]; human, in vivo): ≤ 2 days | time until vomiting ceases (HIV [4]; human, in vivo): ≤ 2 days | time until oral and anogenital ulcers heal (HIV [4]; human, in vivo, po): ≤ 1 week | average weight gain (HIV [4]; within the first month of treatment): 5 kg | antimicrobial activity (Herpes simplex): established | infectivity of HIV after dipping (HIV [5]): renders the virus uninfective | antimicrobial activity (Trichomona vapinalis): established | solubility in water (water solubility): not readily soluble in water | body weight after treatment (HIV [6]; [10]): 48 kg | haemoglobin after treatment (HIV [6]; [10]): 16% | lymphocytes (relative) after treatment (HIV [6]; [10]): 49% | body weight before treatment (HIV [6]; 200 mg tds oral, 14 days, patient three (1), baseline): 44 kg | clinical, haematological and weight gain assessment (HIV [6]; about 20 patients): found to improve | average weight gain (HIV [6]; average patient, within the first month): 5 kg | signs and symptoms (HIV [6]; patient five (3), after 2 weeks): the signs and symptoms were over | standing and walking unaided (HIV [6]; patient four (9)): By the third day they could stand and walk unaided | time until diarrhoea ceased (HIV [6]; patient four (9)): 24 h | vomiting and diarrhoea (HIV [6]; patient four (9)): over by the third day | health at follow-up (HIV [6]; patient four (9), 22.1.95 and May 19th 1995): in perfect health on 22.1.95 | serum iron (HIV [6]; patient four (9), all along the time of treatment): normal | wounds healed, signs and symptoms over (HIV [6]; patient four (9), by end of second week): wounds had healed and all their signs and symptoms were over | haemoglobin rise (HIV [6]; patient four (9), by the sixth month): 1 g % | weight gain (HIV [6]; patient four (9), in six months): 1 kg | haemoglobin after treatment (HIV [6]; patient four (9), sixth month): 11.9% | oral ulcers, genital wounds and lymph node enlargement (HIV [6]; patient one (2)): over by the second week of treatment | time until able to go to the toilet and bathroom unaided (HIV [6]; patient one (2)): ≤ 5 days | body weight before treatment (HIV [6]; patient one (2), baseline): 41 kg | weight gain (HIV [6]; patient one (2), in 3 weeks): 2.5 kg | rashes and pigmentation (HIV [6]; patient six (6), in 2 weeks of treatment): The rashes subsided and the pigmentation returned to normal skin colour | time until signs and symptoms were over (HIV [6]; patient three (1)): six | haemoglobin before treatment (HIV [6]; patient three (1), baseline): 11.69% | lymphocytes (relative) before treatment (HIV [6]; patient three (1), baseline): 39% | body weight before treatment (HIV [6]; patient three (8), baseline): 44 kg | haemoglobin before treatment (HIV [6]; patient three (8), baseline): 12.1% | functional recovery (house work, shopping) (HIV [6]; patient two (7), in 5 days of treatment): able to do their house work, go for salary from their place of work and even go to the market for shopping | absorption from the gut / excretion [7]: sufficiently absorbed from the gut; also recorded: well absorbed and excreted | adverse effects (safety study on rabbit): no adverse effects observed | adverse effects (safety study on chicken): no adverse effects observed | eradication of HIV from patients' blood (HIV [8]; 3 mg/kg tds, 28 days): eradicates HIV from the patients blood | HIV culture growth (HIV [8]; two patients, before treatment and after 28 days of treatment): grew HIV but not after 28 days of treatment | MIC (HIV [9]; Human immunodeficiency virus 1, HIV cultivated in human lymphocytes, read-out: minimum inhibitory concentration / minimum concentration inactivating cultivated HIV): 0.5 µg/mL (≈ 3.27 µM) | inactivation of cultivated HIV (HIV [9]; in vitro, cultivated HIV): completely inactivate cultivated HIV | antimicrobial activity (Neisseria gonorrhoeae): established | antimicrobial activity (Escherchia coli): established | antimicrobial activity (Treponema pallidum): established
